Data reported in paper PMC3740800, “Lanostane- and cycloartane-type triterpenoids from Abies balsamea oleoresin” (Beilstein Journal of Organic Chemistry, 2013).
Values after ≈ are worked out from the molar mass of the structure shown.

Tests used:
Type in all cases: cell-based
S. aureus (ATCC 25923) = experiment: antibacterial microdilution assay, S. aureus; details: for MIC: Staphylococcus aureus, ATCC25923, 6 h at 37 °C, read-out: MIC against S. aureus
Procedure: (§1) The isolates were evaluated in vitro for their cytotoxic activities against two human cancer cell lines, namely lung carcinoma (A549) and colon adenocarcinoma (DLD-1), as well as against one healthy cell line (WS1) using the resazurin reduction test. Etoposide was used as a positive control (IC50 ≤ 1.0 µM). […] The antibacterial activity of isolated compounds was also evaluated in vitro against E. coli and S. aureus using the microdilution assay with gentamycin as a positive control (MIC < 0.1 µg/mL).
(§2) Antibacterial activity was evaluated using the microdilution method with some modifications. Briefly,
(§3) exponentially growing bacteria were plated in 96-well flat-bottom microplates (BD Falcon) at a density of
(§4) 5 × 103 Gram-negative E. coli (ATCC 25922) or 40 × 103 Gram-positive S. aureus (ATCC 25923) per
(§5) well in 100 μL nutrient broth (Difco). Increasing concentrations of compounds in DMSO (Sigma-Aldrich)
(§6) were then added (100 μL per well). The final concentration of DMSO in the culture medium was
(§7) maintained at 0.25% (v/v) to avoid solvent toxicity. Fifty microliters of 4% resazurin was added to each
(§8) well and the microplates were incubated for 6 h at 37 °C. Absorbance was measured after 6 h on an
(§9) automated 96-well Varioskan plate reader (Thermo-Labsystems) at wavelengths of 600 nm and 660 nm
(§10) for E. coli and S. aureus respectively.

lung carcinoma (A549) = experiment: cytotoxicity, resazurin reduction test, A549; details: Homo sapiens, 48 h incubation, read-out: IC50 (concentration inhibiting 50% of cell growth), A549
Procedure: as §1
(§11) 23-Oxo-3,4-seco-9βH-lanosta-4(28),7-diene-3,26-dioic acid (9): white amorphous solid; [α]22 −26.9° (c
(§12) Cytotoxic activity bioassay
(§13) Lung carcinoma (A549), colon adenocarcinoma (DLD-1) and normal skin fibroblast (WS1) human cell
(§14) lines were purchased from the American Type Culture Collection (ATCC). All cell lines were cultured in […]
(§15) solvent toxicity. Cytotoxicity was assessed using resazurin reduction test on an automated 96-well
(§16) Fluoroskan Ascent F1TM plate reader (Labsystems) using excitation and emission wavelengths of 530 nm
(§17) and 590 nm, respectively. Fluorescence was proportional to the cellular metabolic activity in each well.
(§18) Survival percentages were defined as the fluorescence in experimental wells compared to that in control
(§19) wells after subtraction of blank values. Cytotoxicity results were expressed as mean ± standard deviation […]

[1] = system: normal skin fibroblast (WS1); experiment: cytotoxicity, resazurin reduction test, WS1; details: Homo sapiens, WS1 healthy cell line, 48 h incubation, read-out: IC50 (concentration inhibiting 50% of cell growth), WS1
Procedure: as §1, §11, §12, §13, §14, §15, §16, §17, §18, §19

[2] = system: colon adenocarcinoma (DLD-1); experiment: cytotoxicity, resazurin reduction test, DLD-1; details: Homo sapiens, 48 h incubation, read-out: IC50 (concentration inhibiting 50% of cell growth), DLD-1
Procedure: as §1, §11, §12, §13, §14, §15, §16, §17, §18, §19

E. coli (ATCC 25922) = experiment: antibacterial microdilution assay, E. coli; details: 6 h at 37 °C
Procedure: as §1, §2, §3, §4, §5, §6, §7, §8, §9, §10

Row | Compound | MIC (S. aureus (ATCC 25923)) [µM] | IC50 (lung carcinoma (A549)) [µM] | further results
1 | C=C(CC(=O)CC(C)C1CCC2(C)C3CCC4C(C)(C)C(O)CCC45CC35CCC12C)C(=O)O (single isomer, unassigned; (+)) [Compound 4, (+)-rel-3α-hydroxy-23-oxocycloart-25(27)-en-26-oic acid] | 25 (≈ 11.8 µg/mL) |  | 
2 | C=C(C)C1CC=C2C(CCC23C(=C)CCC3(C)C(C)CC(=O)C=C(C)C(=O)O)C1(C)CCC(=O)OC (single isomer, unassigned; (-)) [Compound 1, (−)-rel-abiesonic acid 3-methyl ester] | 25 (≈ 12.4 µg/mL) |  | 
3 | C=C(C)C1CC=C2C(CCC23C(=C)CCC3(C)C(C)CC(=O)C=C(C)C(=O)O)C1(C)CCC(=O)O (centres unmarked) [Compound 6, abiesonic acid] |  | 22 | 
4 | COc1cc([C@@H]2c3cc4c(cc3[C@@H](O[C@@H]3O[C@@H]5CO[C@@H](C)O[C@H]5[C@H](O)[C@H]3O)[C@H]3COC(=O)[C@H]23)OCO4)cc(OC)c1O [Etoposide] |  | ≤ 1 | IC50 [1]: ≤ 1 µM; IC50 [2]: ≤ 1 µM
5 | gentamycin |  |  | MIC against E. coli (positive control) (E. coli (ATCC 25922)): < 0.1 µg/mL; MIC against S. aureus (positive control) (S. aureus (ATCC 25923); 6 h at 37 °C): < 0.1 µg/mL
